# Data published in the Kinase Knowledgebase extract (Sharma et al. 2016).
# Target: CDK2 (UniProt P24941)
structure (smiles),measurement,value
O=C1c2ccccc2-c2n[nH]c3cccc1c23,Kd,3.2 µM
